Experimental findings from ChEMBL document CHEMBL1157539, “Thousands of chemical starting points for antimalarial lead identification” (Nature, 2010) are described below.

The subject of the test is Plasmodium falciparum. Description: GSK_TCMDC: Inhibition of Plasmodium falciparum 3D7 in whole erythrocytes, using parasite LDH activity as an index of growth. Conditions: Plasmodium falciparum, 3D7. The class given is functional, organism-based.

Regarding `Cc1cc(=NN=Cc2ccccc2F)c2cc(F)ccc2[nH]1`, the XC50 was found to be 0.299 µM.
On to `CCOc1ccc(-c2nonc2NC(=O)c2ccccc2F)cc1OCC`, for which the XC50 came to 0.841 µM.
On to `CCc1cn2c3c(cc(C(=O)N[C@@H](Cc4cccc(F)c4)[C@H](O)CNC4CCCCC4)cc13)N(C)S(=O)(=O)CC2`, for which the XC50 came out at 0.0297 µM.
The result for `c1ccc2[nH]c(CN(Cc3nc4ccccc4[nH]3)Cc3nc4ccccc4[nH]3)nc2c1` reads 0.668 µM; that for `CC1(C)NC(N)=NC(=N)N1OCc1cccc(Cl)c1Cl`, 0.0032 µM.
As for `FC(F)(F)c1ccc2[nH]c(-c3ccc(-c4cccc(CNCc5ccccc5)c4)s3)nc2c1`, the figure is 0.153 µM; as for `O=C(NCc1cccs1)[C@H](Cc1ccccc1)Nc1ccnc(NCCc2ccccc2)n1`, 1.05 µM; as for `COc1ccc(-c2nc(NC(=O)CS(=O)(=O)c3ccc(C)cc3)sc2C)cc1`, 0.401 µM.
As for `COc1cc(C2C(Oc3ccccc3)C(=O)N2Cc2ccc(F)cc2)cc(OC)c1OC` (centres undefined), the figure is 0.956 µM; as for `Cn1cccc1C(=O)Nc1cccc(-c2nn3ccccc3c2-c2ccnc(Nc3ccc4c(c3)OCCO4)n2)c1`, 1.35 µM.
Consider `N=C(/N=C(/NCCCCCCN/C(=N\C(=N)Nc1ccc(Cl)cc1)N1CCCCC1)N1CCCCC1)Nc1ccc(Cl)cc1`, for which the XC50 amounted to 0.256 µM.
Compound `COc1ccc(-c2onc(C(F)(F)F)c2-c2cc3ccccc3o2)c(O)c1` came in with an XC50 of 0.863 µM.
As for `N#Cc1cccc(C(=O)Nc2ccc(-c3nc4ccccc4[nH]3)cc2)c1`, the figure is 0.541 µM; as for `COc1ccc2nccc([C@@H](O)CN3CCC(NC(=O)/C=C/c4cc(F)cc(Br)c4)CC3)c2c1`, 0.172 µM; as for `COc1ccc(CCNCC(O)c2cccc(Br)c2)c(Cl)c1OC` (centres undefined), 1.04 µM.
Compound `COc1ccc(CCNCc2cc3c(C(C)(C)C)nn(-c4ccc(Cl)cc4)c3[nH]c2=O)cc1OC` returned an XC50 of 0.148 µM.
In turn, `CN(C)c1ccc(-c2ccc(C(=O)NC3CCN(Cc4ccc(C(C)(C)C)cc4)CC3)s2)cc1` displayed an XC50 of 0.97 µM.
As for `O=C(NCCCCN1CCC(c2ccc3c(c2OCCO)CCCC3)CC1)c1sc(-c2ccc(C(F)(F)F)cc2)nc1CO`, the figure is 1.05 µM.
On to `O=C(Nc1ccc(S(=O)(=O)N2CCCCCC2)cc1)c1cc(-c2ccccc2O)n[nH]1`, for which the XC50 worked out at 0.717 µM.
The result for `CCN(Cc1ccccc1)C1CCN(Cc2cc(Br)ccc2O)CC1` reads 0.823 µM.
The result for `Cc1cccc(C(O)CNc2ccnc(Nc3cccc(-c4csc(C)n4)c3)n2)c1` (centres undefined) reads 0.675 µM.
Regarding `COc1ccccc1CCNc1nc(C)cc(N[C@@H](Cc2ccccc2)C(=O)NCCc2ccccc2)n1`, the XC50 was 1.11 µM.
Take `CCN(CC)/C(=N/C(=N)Nc1ccc(Br)cc1)NCCCCCCN/C(=N\C(=N)Nc1ccc(Br)cc1)N(CC)CC`: the XC50 was 0.384 µM.
The result for `O=C(COc1ccccc1Cl)N1CCc2cc3nccc(N4CCN5CCC[C@H]5C4)c3cc21` reads 0.744 µM.
Take `O=C(Nc1ccc2nc3n(c(=O)c2c1)CCCCC3)C(=O)N1CCN(c2ccc(F)cc2)CC1`: the XC50 amounted to 0.636 µM.
The result for `CC(C)(C)c1ccc2[nH]c(-c3ccc(C(=O)NCc4cccc(C(F)(F)F)c4)cc3)nc2c1` reads 0.733 µM; that for `COc1cccc(C(=O)C2CC2CN2CC=C(c3c[nH]c4cccc(Br)c34)CC2)c1` (centres undefined), 0.752 µM; that for `COC(=O)c1cccc(CNCc2ccc(-c3cccc(-c4nc5ccccc5[nH]4)c3)cc2)c1`, 0.261 µM.
As for `CC(C)(CNC(=O)C1CCN(CCOc2ccc(Cl)cc2)CC1)c1nc(-c2ccc(Cl)c(O)c2)c(-c2ccncc2)[nH]1`, the figure is 0.709 µM; as for `CCOC(=O)/C(=N\OC(C(=O)OC(C)(C)C)c1ccccc1)c1csc(NC(c2ccccc2)(c2ccccc2)c2ccccc2)n1` (centres undefined), 1.11 µM.
`CCc1cn2c3c(cc(C(=O)N[C@@H](Cc4ccccc4)[C@H](O)CNC4CCC4)cc13)N(C)S(=O)(=O)CC2` gave an XC50 of 0.099 µM.
In the case of `CC(CNC(=O)[C@H]1CNCCN1C(=O)CCCc1ccccc1)c1ccccc1` (some centres undefined), the XC50 came out at 0.915 µM.
The result for `CC1CCN(Cc2cccc(C(=O)NCc3ccc(F)c(-c4cccc(CN5CCN[C@@H](C)C5)c4)c3)c2)CC1` reads 1.46 µM; that for `COC(=O)C(C)(C)Cc1c(SC(C)(C)C)c2cc(C(C)C)ccc2n1Cc1ccc(Cl)cc1`, 0.849 µM.
For the compound `FC(F)(F)c1ccc(/C=C/c2cncnc2Nc2ccc3[nH]c(Cc4ccccc4)nc3c2)cc1`, the XC50 was 0.608 µM.
As for `COCCSc1ccc(CC(C)NCC(O)c2cccc(Cl)c2)cc1` (centres undefined), the figure is 0.758 µM; as for `N#Cc1cc(C(=O)Nc2ccccc2)c(N)nc1SCC(=O)NC(c1ccccc1)c1cccs1` (centres undefined), 0.605 µM; as for `CC(C)CCNC(=O)C1Cc2c([nH]c3ccc(Br)cc23)C2(CCN(Cc3ccccc3)CC2)N1` (centres undefined), 0.817 µM.
Compound `CCn1cc(C=C2Oc3c(ccc(O)c3CN3CCCCC3)C2=O)c2ccccc21` came in with an XC50 of 0.281 µM.
As for `Cc1ccc(C)c(NC(=O)Nc2ccc(C)c(-c3ccc(C(=O)Nc4ccncc4)cc3)c2)c1`, the figure is 0.618 µM.
As for `COc1ccc2nccc([C@@H](O)CN3CCC(NC(=O)/C=C/c4ccc(F)c5ccccc45)CC3)c2c1`, the figure is 0.184 µM.
As for `CC[C@H]1CN2CC[C@@H]1C[C@H]2[C@H](O)c1cc(-c2cc(Cl)cc(Cl)c2)nc2ccc(OC)cc12`, the figure is 0.235 µM.
Compound `CCCC1(NC[C@@H](O)[C@H](Cc2ccccc2)NC(=O)c2cc(NCC)cc(N3CCCCS3(=O)=O)c2)CCC1` displayed an XC50 of 0.72 µM.
As for `CC(C)(C)c1ccc2[nH]c(-c3ccc(/C=C/C(=O)NC4CCN(Cc5ccccc5)CC4)cc3)nc2c1`, the figure is 0.589 µM; as for `O=C(Nc1ccc(-c2ccccc2)cc1)Nc1cccc(OCCN2CCCC2)c1`, 0.935 µM; as for `c1ccc(-c2cc(NCCCn3ccnc3)nc(-c3cccnc3)n2)cc1`, 0.977 µM.
For the compound `c1ccc(-c2cc(NCCCCCCCCNc3cc(-c4ccccc4)nc4ccccc34)c3ccccc3n2)cc1`, the XC50 was found to be 0.395 µM.
The result for `COc1ccc2[nH]ccc(=NN=Cc3ccccc3Cl)c2c1` reads 0.664 µM.
`Clc1ccc(Nc2nc3nonc3nc2Nc2ccc(Cl)c(Cl)c2)cc1` gave an XC50 of 0.645 µM.
`CN(C)CCNCc1ncsc1-c1ccc2c(Nc3ccc(F)cc3Cl)ccnc2c1`: the XC50 was found to be 1.47 µM.
`Oc1ccc(CCNc2nc(NCCCOc3ccccc3-c3cccc(C(F)(F)F)c3)nc(N3CCNCC3)n2)cc1`: the XC50 stood at 0.882 µM.
As for `CCN(CC)CCN(Cc1ccc(-c2ccc(C(F)(F)F)s2)cc1)C(=O)Cn1c(CCc2cccc(F)c2F)nc(=O)c2ccccc21`, the figure is 0.994 µM.
`CCN1CCN(CCNc2c3ccccc3nc3ccccc23)CC1` registered an XC50 of 1.02 µM.
Compound `CC(C)c1ccc(S(=O)(=O)N(c2ccc3c(c2)OCO3)C2CCN(Cc3ccccc3)C2)cc1` (centres undefined) displayed an XC50 of 0.35 µM.
`Nc1ccc2[nH]cc(C3CCN(CC4CCC(NC(=O)/C=C/c5ccccc5Cl)CC4)CC3)c2n1` (centres undefined) yielded an XC50 of 0.688 µM.
In turn, `CCOc1cc(C(C)C)ccc1C1CCN(CCCCNC(=O)c2ccc(NC(=O)c3ccc(Cl)cc3)cc2)CC1` had an XC50 of 0.813 µM.
In turn, `COc1ccc(-c2ccc(NC(=O)c3cccc(F)c3)cc2)cc1CN1CCCN(C)CC1` gave an XC50 of 0.672 µM.
As for `Cc1nc2ccc([N+](=O)[O-])cc2c(=O)n1OCc1ccccc1`, the figure is 0.208 µM; as for `COc1nc(-n2ccc(=N)cc2)nc2ccccc12`, 1.06 µM.
As for `Cc1ccc(Cn2nc(Cl)c(N3CCCNCC3)cc2=O)cc1NC(=O)Nc1ccc(-c2ccccc2)cc1`, the figure is 0.667 µM; as for `Cc1ccc(Cn2c(N3CCC(C(=O)NCc4ccccn4)CC3)nc3ccccc32)cc1`, 0.408 µM; as for `Cc1cc(NC(=O)c2ccco2)ccc1OC1CCN(Cc2ccc(C#N)cc2)CC1`, 0.497 µM.
The result for `CN(C)CCOc1cc(NC(=O)Nc2ccc(-c3ccncc3)c(Cl)c2)ccc1I` reads 0.143 µM; that for `CC(=O)c1cccc(NC(=O)c2ccc(Cl)c(S(=O)(=O)N3CCc4ccccc43)c2)c1`, 1.64 µM.
In turn, `CCCC(=O)NC(c1ccc(C)cc1)c1ccc2cccnc2c1O` (centres undefined) showed an XC50 of 0.957 µM.
The result for `CC(CNCc1cn(Cc2cc(Br)cc(Br)c2)c2ccccc12)CNc1cc(=O)c2ccccc2[nH]1` (centres undefined) reads 0.464 µM.
The result for `O=C(/C=C/c1ccc(Cl)c(Cl)c1)NCC[C@@H]1C[C@H]1CCN1CCC(c2c[nH]c3ccccc23)CC1` reads 0.794 µM; that for `CCOc1ccc(-c2nonc2NC(=O)c2cccc(Cl)c2)cc1OCC`, 0.147 µM.
The result for `CCOC(=O)c1c(CN(CC)CC)n(-c2ccccc2)c2cc(Br)c(O)cc12` reads 0.998 µM; that for `CN(C)CCCN(C)C(=O)c1cc2cc(-c3ccccc3)ccc2n1S(=O)(=O)c1ccccc1`, 0.462 µM; that for `O=C(Nc1cccc(CN2CCCN(Cc3cccc(O)c3)CC2)c1)c1ccc(-c2ccccc2)cc1`, 0.641 µM.
In turn, `Cn1cccc1C(=O)NCC(CCNc1cc(=O)c2ccccc2[nH]1)NCc1cc(Br)cc(Br)c1` (centres undefined) came in with an XC50 of 0.911 µM.
As for `N=C(Nc1cccc(Cc2ccccc2)n1)Nc1ncccn1`, the figure is 0.928 µM.
The compound `COc1ccc(-c2nc(NC(=O)CS(=O)(=O)c3ccc(F)cc3)sc2C)cc1` had an XC50 of 0.243 µM.
With `Cc1cc(-c2nc3ccc(C(=O)NCc4ccccc4)cc3n2C2CCN(C(=O)c3ccc(-c4ccccc4)cc3)CC2)ccn1`, the XC50 was determined as 0.898 µM.
`Fc1ccc(Nc2nnc(CNC3CCN(Cc4ccc(Cl)c(Cl)c4)CC3)[nH]2)cc1` came in with an XC50 of 1.38 µM.
As for `COc1ccc(OC)c(C=NNc2nc3ccccc3[nH]2)c1`, the figure is 0.729 µM; as for `COc1ccc(-c2ccc(NC(=O)c3ccc(C#N)cc3)cc2)cc1CN1CCCC1`, 0.873 µM; as for `CC(C)c1ccc(NC(=O)NCCCC2CCCN(CCCCCNC(=O)/C=C/c3ccc(Cl)c(Cl)c3)C2)cc1` (centres undefined), 0.957 µM.
The result for `COc1ccc2nccc([C@@H](O)CN3CCC(NCc4cnc5snnc5c4)C(F)C3)c2c1` (some centres undefined) reads 1.35 µM; that for `O=C(NC(Nc1ccc([N+](=O)[O-])cc1)C(Cl)(Cl)Cl)c1ccc(Cl)cc1` (centres undefined), 0.782 µM; that for `O=C(Nc1ccc2c(c1)CN(Cc1ccc(N3CCCC3)o1)CCC2)c1cncs1`, 1.57 µM.
Consider `Cc1ccc(-c2ccc(NC(=O)N3CCc4cc(Br)c(N5CCN(C)CC5)cc43)cc2)cn1`, for which the XC50 is 1.35 µM.
Turning to `CCOC(=O)c1sc(C(C)Nc2ccccc2)nc1-c1ccccc1` (centres undefined), the XC50 was found to be 0.333 µM.
